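These data come from cells grown in 96-well plates and exposed to compound for 48 hours at five concentrations. GI50: concentration for 50% inhibition of growth. TGI marks complete inhibition of growth.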
Tests used:
Assay in all cases: inhibition of tumour cell growth, NCI panel, 48 h
M14 melanoma = tested on: M14 melanoma
BT-549 breast = tested on: BT-549 breast
T-47D breast = tested on: T-47D breast
HL-60(TB) leukemia = tested on: HL-60(TB) leukemia
NCI-H23 lung = tested on: NCI-H23 lung
UO-31 renal = tested on: UO-31 renal
SF-295 CNS = tested on: SF-295 CNS
UACC-62 melanoma = tested on: UACC-62 melanoma
MDA-MB-231 breast = tested on: MDA-MB-231 breast
786-0 renal = tested on: 786-0 renal
HS 578T breast = tested on: HS 578T breast
MALME-3M melanoma = tested on: MALME-3M melanoma
DU-145 prostate = tested on: DU-145 prostate
SK-MEL-5 melanoma = tested on: SK-MEL-5 melanoma
NCI-H460 lung = tested on: NCI-H460 lung
HCT-15 colon = tested on: HCT-15 colon
OVCAR-8 ovarian = tested on: OVCAR-8 ovarian
MCF7 breast = tested on: MCF7 breast
SW-620 colon = tested on: SW-620 colon
SN12C renal = tested on: SN12C renal
NCI-H226 lung = tested on: NCI-H226 lung
EKVX NSCLC = tested on: EKVX NSCLC
HCC-2998 colon = tested on: HCC-2998 colon
SK-MEL-2 melanoma = tested on: SK-MEL-2 melanoma
OVCAR-4 ovarian = tested on: OVCAR-4 ovarian
A549 NSCLC = tested on: A549 NSCLC
TK-10 renal = tested on: TK-10 renal
OVCAR-5 ovarian = tested on: OVCAR-5 ovarian

## CN(C)CCCOc1ccc(OCCCN(C)C)c2c1C(=O)c1ccccc1C2=O
M14 melanoma
  GI50: 1.6 µM
  TGI: 3.49 µM
BT-549 breast
  GI50: 1.95 µM
  TGI: 4.97 µM
T-47D breast
  GI50: 1.36 µM
  TGI: 8.3 µM
HL-60(TB) leukemia
  GI50: 2.14 µM
  TGI: 6.77 µM
NCI-H23 lung
  GI50: 1.02 µM
  TGI: 4.27 µM
UO-31 renal
  GI50: 2.64 µM
  TGI: 18.3 µM
SF-295 CNS
  GI50: 1.71 µM
  TGI: 10.6 µM
UACC-62 melanoma
  GI50: 1.89 µM
  TGI: 4.24 µM
MDA-MB-231 breast
  GI50: 0.908 µM
  TGI: 4.63 µM
786-0 renal
  GI50: 1.77 µM
  TGI: 10.3 µM
HS 578T breast
  GI50: 2.05 µM
  TGI: 10.5 µM
MALME-3M melanoma
  GI50: 1.11 µM
  TGI: 2.73 µM
DU-145 prostate
  GI50: 1.14 µM
  TGI: 11.8 µM
SK-MEL-5 melanoma
  GI50: 1.86 µM
  TGI: 3.56 µM
NCI-H460 lung
  GI50: 0.514 µM
  TGI: 11.6 µM
HCT-15 colon
  GI50: 5.45 µM
  TGI: 61.5 µM
OVCAR-8 ovarian
  GI50: 1.14 µM
  TGI: 12 µM
MCF7 breast
  GI50: 0.388 µM
  TGI: 10.6 µM
SW-620 colon
  GI50: 0.532 µM
  TGI: 11 µM
SN12C renal
  GI50: 0.517 µM
  TGI: 11.9 µM
NCI-H226 lung
  GI50: 1.02 µM
  TGI: 5.54 µM
EKVX NSCLC
  GI50: 2.3 µM
  TGI: 11 µM
HCC-2998 colon
  GI50: 1.26 µM
  TGI: 6.52 µM
SK-MEL-2 melanoma
  GI50: 1.26 µM
  TGI: 3.34 µM
OVCAR-4 ovarian
  GI50: 1.4 µM
  TGI: 5.18 µM
A549 NSCLC
  GI50: 0.388 µM
  TGI: 11.9 µM
TK-10 renal
  GI50: 1.71 µM
  TGI: 12.5 µM
OVCAR-5 ovarian
  GI50: 0.962 µM
  TGI: 5.29 µM
